One test concerns Botrytis cinerea. The test can be described thus: Test B: tomato Botrytis, preventive spray on tomato seedlings, visual disease rating. The following applies: Botrytis cinerea, in Solanum lycopersicum, 120 h, read-out: Test B disease control rating.
Test [1] concerns Puccinia recondita f. sp. tritici. Briefly: Test H: wheat leaf rust, curative spray on inoculated wheat seedlings, visual disease rating. The following applies: 144 h, read-out: Test H disease control rating.
A further test has as its system Septoria tritici. Briefly: Test G: wheat leaf blotch, preventive spray on wheat seedlings, visual disease rating. As to conditions: Zymoseptoria tritici, in Triticum aestivum, 504 h, read-out: Test G disease control rating.
For the next test, the system named is Septoria nodorum. Briefly: Test F: Septoria glume blotch, preventive spray on wheat seedlings, visual disease rating. As to conditions: Parastagonospora nodorum, in Triticum aestivum, 192 h, read-out: Test F disease control rating.
Test [2] concerns Erysiphe graminis f sp. tritici. Briefly: Test J: wheat powdery mildew, preventive spray on wheat seedlings, visual disease rating. As to conditions: Blumeria graminis, in Triticum aestivum, 192 h, read-out: Test J disease control rating.
Source text: (§1) General protocol for preparing test suspensions for Tests A-J: the test compounds were first dissolved in acetone in an amount equal to 3% of the final volume and then suspended at the desired concentration (in ppm) in acetone and purified water (50/50 mix by volume) containing 250 ppm of the surfactant Trem® 014 (polyhydric alcohol esters). The resulting test suspensions were then used in Tests A-J. Spraying a 200 ppm test suspension to the point of run-off on the test plants was the equivalent of a rate of 500 g/ha. Unless otherwise indicated, the rating values indicate a 200 ppm test suspension was used. (An asterisk “*” next to the rating value indicates a 40 ppm test suspension was used.)
The test suspension was sprayed to the point of run-off on wheat seedlings. The following day the seedlings were inoculated with a spore dust of Erysiphe graminis f sp. tritici, (the causal agent of wheat powdery mildew) and incubated in a growth chamber at 20° C. for 8 days, after which time visual disease ratings were made.
For the next test, the system named is Alternaria solani. Briefly: Test C: tomato early blight, preventive spray on tomato seedlings, visual disease rating. The following applies: Alternaria solani, in Solanum lycopersicum, 168 h, read-out: Test C disease control rating.
The test system of test [3] is Puccinia recondita f. sp. tritici. Briefly: Test I: wheat leaf rust, preventive spray on wheat seedlings, visual disease rating. As to conditions: 192 h, read-out: Test I disease control rating.

The structures appear in SMILES notation.

Source text for Septoria nodorum: as §1
The test suspension was sprayed to the point of run-off on wheat seedlings. The following day the seedlings were inoculated with a spore suspension of Septoria nodorum (the causal agent of Septoria glume blotch) and incubated in a saturated atmosphere at 24° C. for 48 h, and then moved to a growth chamber at 20° C. for 6 days, after which time visual disease ratings were made.
Source text for Septoria tritici: as §1
The test suspension was sprayed to the point of run-off on wheat seedlings. The following day the seedlings were inoculated with a spore suspension of Septoria tritici (the causal agent of wheat leaf blotch) and incubated in saturated atmosphere at 24° C. for 48 h. and then the seedlings were moved to a growth chamber at 20° C. for 19 additional days, after which time visual disease ratings were made.

Take `Cc1nn(C)c(Nc2c(F)cc(Cl)cc2F)c1-c1ccc(C#N)cc1Cl` [Compound 336, 3-chloro-4-[5-[(4-chloro-2,6-difluorophenyl)amino]-1,3-dimethyl-1H-pyrazol-4-yl]-benzonitrile]: the pest or weed control at 200 µg/mL amounted to 100% in the test on Botrytis cinerea; 94% in test [1]; 100% in the test on Septoria tritici; 95% in the test on Septoria nodorum; 99% in test [2]; 97% in the test with Alternaria solani. Further, the pest or weed control at 200 µg/mL in test [3] worked out at 100%.

For `Cc1nn(C)c(Nc2c(F)cc(F)cc2Cl)c1-c1ccc(F)cc1F` [Compound 343, N-(2-chloro-4,6-difluorophenyl)-4-(2,4-difluorophenyl)-1,3-dimethyl-1H-pyrazol-5-amine], the pest or weed control at 200 µg/mL was 100% in the test on Botrytis cinerea; 91% in test [1]; 100% in the test on Septoria tritici; 97% in the test on Septoria nodorum; 100% in test [2]; 100% with Alternaria solani. Moreover, the pest or weed control at 200 µg/mL in test [3] was 100%.

As to `Cc1nn(C)c(Nc2c(F)cc(Cl)cc2F)c1-c1ccc(F)cc1F` [Compound 357, N-(4-chloro-2,6-difluorophenyl)-4-(2,4-difluorophenyl)-1,3-dimethyl-1H-pyrazol-5-amine], the pest or weed control at 200 µg/mL is 100% with Botrytis cinerea; 0% in test [1]; 100% in the test on Septoria tritici; 87% with Septoria nodorum; 100% in test [2]; 86% with Alternaria solani. The pest or weed control at 200 µg/mL in test [3] was 99%.

For the compound `Cc1nn(C)c(Oc2ccc(C#N)cc2Cl)c1-c1c(F)cccc1F` [Compound 358, 3-chloro-4-[[4-(2,6-difluorophenyl)-1,3-dimethyl-1H-pyrazol-5-yl]oxy]benzonitrile], the pest or weed control at 200 µg/mL in the test with Botrytis cinerea is 99%; in test [1] it was 0%; with Septoria tritici, 100%; in the test on Septoria nodorum it was 0%; in test [2], 97%; in the test on Alternaria solani, 0%. Also, the pest or weed control at 200 µg/mL in test [3] is 97%.

As to `Cc1nn(C)c(Nc2c(F)cc(Cl)cc2F)c1-c1ccc(F)cc1Br` [Compound 360, 4-(2-bromo-4-fluorophenyl)-N-(4-chloro-2,6-difluorophenyl)-1,3-dimethyl-1H-pyrazol-5-amine], the pest or weed control at 200 µg/mL in the test with Botrytis cinerea came out at 100%; in test [1], 79%; in the test on Septoria tritici, 100%; in the test with Septoria nodorum, 95%; in test [2], 100%; in the test with Alternaria solani, 97%. In addition, the pest or weed control at 200 µg/mL in test [3] worked out at 100%.

With `Cc1nn(C)c(Oc2ccc(C#N)cc2F)c1-c1c(F)cccc1F` [Compound 361, 4-[[4-(2,6-difluorophenyl)-1,3-dimethyl-1H-pyrazol-5-yl]oxy]-3-fluorobenzonitrile], the pest or weed control at 200 µg/mL with Botrytis cinerea was determined as 100%; in test [1], 0%; with Septoria tritici, 100%; in the test on Septoria nodorum, 0%; in test [2], 100%; in the test with Alternaria solani, 90%. In addition, in test [3], the pest or weed control at 200 µg/mL is 100%.

For `Cc1nn(C)c(Nc2c(F)cc(Br)cc2F)c1-c1ccc(F)cc1F` [Compound 364, N-(4-bromo-2,6-difluorophenyl)-4-(2,4-difluorophenyl)-1,3-dimethyl-1H-pyrazol-5-amine], the pest or weed control at 200 µg/mL in the test with Botrytis cinerea was 99%; in test [1], 0%; in the test with Septoria tritici, 100%; in the test with Septoria nodorum, 88%; in test [2], 100%; with Alternaria solani, 97%. Also, the pest or weed control at 200 µg/mL in test [3] worked out at 99%.

The values above are taken from patent US10448639B2, “Fungicidal pyrazoles” (FMC CORPORATION, priority 2009, dated 2019).
